Laboratory results taken from patent US20080221129A1, “New compounds” (priority 2006, published 2008).

Target: T1, stearoyl-CoA desaturase (SCD) (Rattus norvegicus, UniProt P07308)
T1 construct: 0.032 mg/ml rat liver microsomes (total protein content); from tissue
T1 sequence (P07308 1-358): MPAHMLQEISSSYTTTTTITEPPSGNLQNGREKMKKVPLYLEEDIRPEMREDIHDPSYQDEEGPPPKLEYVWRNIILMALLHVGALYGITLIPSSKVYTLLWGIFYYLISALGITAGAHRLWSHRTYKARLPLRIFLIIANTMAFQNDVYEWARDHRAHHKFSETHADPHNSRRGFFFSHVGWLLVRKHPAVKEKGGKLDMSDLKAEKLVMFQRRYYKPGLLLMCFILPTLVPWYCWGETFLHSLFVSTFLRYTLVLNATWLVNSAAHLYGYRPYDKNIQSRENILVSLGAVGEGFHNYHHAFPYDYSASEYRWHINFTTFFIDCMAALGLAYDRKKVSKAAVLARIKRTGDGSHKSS
Assay: Tritium release screening assay for inhibition of stearoyl-CoA desaturase activity in rat liver microsomes
Assay type: biochemical, rat (Male Sprague-Dawley)
Settings: [3H]-stearoyl-CoA, 20 min pre-incubation, 20 min reaction, 384- or 96-well format
From the text: Another measure of SCD activity was introduced by Talamo and Bloch in 1969 [Talamo & Bloch (1969) Anal. Biochem. 29, 300-304]. This method is based on the quantification of a second product of the desaturase reaction, i.e. the water molecule that is released in the desaturase reaction. The quantification is based on the use of a long chain acyl-CoA substrate, e.g. stearoyl-CoA, that is specifically labeled with tritium in positions 9 and 10 of the carbon chain such that the released water is also tritiated ([^3H]-H2O). The remaining [^3H]-stearoyl-CoA as well as the product [^3H]-oleyl-CoA must then be separated from the solution before the tritiated water content can be measured by means of liquid scintillation. Talamo and Bloch acid precipitated the long chain acyl-CoAs followed by filtration to achieve this separation, but this separation can also be achieved by means of centrifugation instead of filtration [Johnson & Guhr (1971) Lipids 6, 78-84]. An alternative procedure that involves precipitation by ethanol and activated charcoal followed by centrifugation has also been described [Shanklin and Somerville (1991) Proc. Natl. Acad. Sci. USA 88, 2510-2514]. Based on these studies it is clear that near perfect separation is required for optimal assay performance. When applying this assay it is important to recognize that the apparent desaturation rate is impacted by isotope effects as described by Johnson and Gurr in 1971 [Johnson & Guhr (1971) Lipids 6, 78-84]. Thus whereas the assay serves as an excellent measure of relative SCD activity it must be calibrated using other methods when absolute measures of enzyme activity are needed. The pros and cons of this assay have also been summarized in the literature [Gurr & Robinson (1972) Anal. Biochem. 47, 146-156]. An abundant source of stearoyl-CoA desaturase activity can be found in microsomal preparations from the liver of rats that have been subjected to a fasting-refeeding procedure on a low fat/high carbohydrate diet [reviewed in Ntambi (1999) J. Lipid Res. 40, 1549-1558]. However, microsomal preparations are not a pure source of SCD activity and this means that the added stearoyl-CoA substrate is subject also to other enzymatic processes. It is therefore essential to include reagents that allow regeneration of the stearoyl-CoA substrate as described by Bertram and Erwin [Bertram & Erwin (1981) J. Protozool. 8, 127-131].
The tritium release assay for the measurement of SCD activity is thus well documented in the literature. Descriptions on how these finding have been used to produce standard screening assays in 96-well plates are also available [Brownlie, Hayden, Attie, Ntambi, Gray-Keller, & Miyazaki (2001) WO 01/62954; Wu, Gallipoli, Gallagher, & Gardell (2004) WO 2004/04776]. […]

Row | IC50 | SMILES
1 | 140 ± 67 nM | Cc1nc2c(C(=O)NCC3CCCO3)cnn2c(C)c1Cc1cccc(Br)c1 (stereo not shown) [6-(3-bromobenzyl)-5,7-dimethyl-N-(tetrahydrofuran-2-ylmethyl)pyrazolo[1,5-a]pyrimidine-3-carboxamide]
2 | 1000 ± 400 nM | COCCNC(=O)c1cnn2c(C)c(Cc3ccccc3)c(C)nc12 [Example 1, 6-benzyl-N-(2-methoxyethyl)-5,7-dimethylpyrazolo[1,5-a]pyrimidine-3-carboxamide]
3 | 830 ± 240 nM | COc1cccc(Cc2c(C)nc3c(C(=O)NCCNC(C)=O)cnn3c2C)c1 [Example 8, N-[2-(Acetylamino)ethyl]-6-(3-methoxybenzyl)-5,7-dimethylpyrazolo-[1,5-a]pyrimidine-3-carboxamide]
4 | 700 ± 110 nM | CCOCCCNC(=O)c1cnn2c(C)c(Cc3cccc(F)c3)c(C)nc12 [Example 24, N-(3-ethoxypropyl)-6-(3-fluorobenzyl)-5,7-dimethylpyrazolo[1,5-a]-pyrimidine-3-carboxamide]
